Legend:
[1] = target: Bovine Serum Albumin (BSA) (Bos taurus, UniProt P02769); test: Flocculation of ZLC in the presence of protein (BSA); format: physicochemical; conditions: ZLC 15 mg/ml, 5 hours, 37° C.
Protocol: Turbidity and pH of solutions are measured 5 hours after the mixtures were placed in a 37° C. oven, and the results are shown in Table 3: […]

[2] = Hydrolysis reaction: pH and turbidity of diluted ZLC solutions before and after aging; format: physicochemical; conditions: for pH after aging / turbidity after aging (NTU): 37° C. oven over 5 hours
Protocol: A 185 mg/ml ZLC solution is prepared and diluted several-fold and aged in a 37° C. oven over 5 hours for turbidity studies. […] Turbidity of the solutions is measured using a nephelometer, results being given in nephelometric turbidity units (NTU).

bacterial culture = test: Zone of inhibition test; format: cell-based; conditions: 20 μl on filter paper discs, TSA plates, 20 hours at 37° C.
Protocol: A zone of inhibition test is conducted on several materials: zinc oxide, lysine hydrochloride, and ZLC. The method involves making a lawn of freshly prepared bacterial culture on TSA (trypticase soy agar) plates. Sterile filter paper discs are seeded with 20 μl of test sample (supernatant or mixture). Sample-coated filter paper discs are air dried and applied onto the bacterial lawn on TSA plates. Plates are incubated for 20 hours at 37° C.

[3] = sample 3: 1% BSA, pH adjusted to 5.13

Chain of Bovine Serum Albumin (BSA) (P02769 25-607): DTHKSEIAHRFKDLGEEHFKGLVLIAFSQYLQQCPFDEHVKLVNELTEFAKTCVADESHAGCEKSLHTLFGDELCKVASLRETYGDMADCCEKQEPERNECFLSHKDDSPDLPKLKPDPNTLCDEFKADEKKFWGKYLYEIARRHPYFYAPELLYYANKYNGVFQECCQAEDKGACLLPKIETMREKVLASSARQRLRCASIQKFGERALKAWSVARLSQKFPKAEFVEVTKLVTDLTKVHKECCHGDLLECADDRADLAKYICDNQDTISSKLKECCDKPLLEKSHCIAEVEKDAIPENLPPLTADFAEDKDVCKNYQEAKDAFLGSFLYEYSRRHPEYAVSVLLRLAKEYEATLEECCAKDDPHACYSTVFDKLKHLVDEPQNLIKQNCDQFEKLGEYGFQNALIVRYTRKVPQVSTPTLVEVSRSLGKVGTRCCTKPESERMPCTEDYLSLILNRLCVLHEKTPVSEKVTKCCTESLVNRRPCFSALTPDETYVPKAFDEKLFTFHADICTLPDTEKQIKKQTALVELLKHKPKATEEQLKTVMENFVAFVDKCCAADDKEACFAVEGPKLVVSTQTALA

[Zn(C6H14N2O2)2Cl]^+Cl^− [ZLC]
Turbidity(NTU) ([1]; sample 1: DI water, 0% BSA): 357 NTU
pH ([1]; sample 1: DI water, 0% BSA): 7.98
Turbidity(NTU) ([1]; sample 2: 1% BSA, pH 7.17): >1000 NTU
pH ([1]; sample 2: 1% BSA, pH 7.17): 8.16
Turbidity(NTU) [1, 3]: >1000 NTU
pH [1, 3]: 7.97
initial pH ([2]; 5.78 mg/ml): 8.0
initial turbidity (NTU) ([2]; 5.78 mg/ml): 40.1 NTU
pH after aging ([2]; 5.78 mg/ml): 8.0
turbidity after aging (NTU) ([2]; 5.78 mg/ml): >1000 NTU
initial pH ([2]; 11.56 mg/ml): 7.8
initial turbidity (NTU) ([2]; 11.56 mg/ml): 14.8 NTU
pH after aging ([2]; 11.56 mg/ml): 7.8
turbidity after aging (NTU) ([2]; 11.56 mg/ml): >1000 NTU
initial pH ([2]; 23.125 mg/ml): 7.7
initial turbidity (NTU) ([2]; 23.125 mg/ml): 0.70 NTU
pH after aging ([2]; 23.125 mg/ml): 7.7
turbidity after aging (NTU) ([2]; 23.125 mg/ml): 247.4 NTU
initial pH ([2]; 46.25 mg/ml): 7.4
initial turbidity (NTU) ([2]; 46.25 mg/ml): 1.48 NTU
pH after aging ([2]; 46.25 mg/ml): 7.4
turbidity after aging (NTU) ([2]; 46.25 mg/ml): 2.81 NTU
initial pH ([2]; 92.5 mg/ml): 7.0
initial turbidity (NTU) ([2]; 92.5 mg/ml): 2.78 NTU
pH after aging ([2]; 92.5 mg/ml): 7.0
turbidity after aging (NTU) ([2]; 92.5 mg/ml): 2.60 NTU
initial pH ([2]; 185 mg/ml): 6.8
initial turbidity (NTU) ([2]; 185 mg/ml): 4.75 NTU
pH after aging ([2]; 185 mg/ml): 6.8
turbidity after aging (NTU) ([2]; 185 mg/ml): 4.08 NTU
behaviour of the complex upon dilution ([2]; 8×, 16× and 32× diluted solutions, precipitates identified by PXRD): disassociates upon dilution, with consequent precipitation of zinc oxide
antibacterial activity (zone of inhibition) (bacterial culture): better antibacterial activity than zinc oxide alone or lysine hydrochloride alone

From US9504858B2 (Colgate-Palmolive Company, priority 2012, dated 2016)
